Source: patent US10752609B2, “GSK-3 inhibitors” (priority 2016, dated 2020)
Read-outs that look alike come from different tables or passages of the source.

Columns and labels:
GSK3β = GSK3β (Homo sapiens, UniProt P49841); assay: GSK3β kinase assay (Caliper LabChip3000 mobility shift, fluoresceinated peptide substrate); type: biochemical
Protocol: (§1) The kinase assay was performed in V-bottom 384-well plates. […] The reaction was incubated at room temperature for 20 hours and terminated by adding 45 μl of 35 mM EDTA to each sample. The reaction mixture was analyzed on the Caliper LabChip3000 (Caliper, Hopkinton, Mass.) by electrophoretic separation of the unphosphorylated substrate and phosphorylated product. […] Compounds were dissolved at 10 mM in dimethylsulfoxide (DMSO) and evaluated at eleven concentrations. IC50 values were derived by non-linear regression analysis.

pTau = pTau assay (no method described); type: cell-based
GSK3α = GSK3α (Homo sapiens, UniProt P49840); assay: GSK3α kinase assay (Caliper LabChip3000 mobility shift, fluoresceinated peptide substrate)
Protocol: as §1

[1] = 250 pM enzyme, 20 uM ATP, 1.5 uM peptide, 20 hours room temperature, first value of cell GSK3β/GSK3α, read-out: GSK3β (nM), IC50

Chain of GSK3β (P49841 whole entry, species assumed): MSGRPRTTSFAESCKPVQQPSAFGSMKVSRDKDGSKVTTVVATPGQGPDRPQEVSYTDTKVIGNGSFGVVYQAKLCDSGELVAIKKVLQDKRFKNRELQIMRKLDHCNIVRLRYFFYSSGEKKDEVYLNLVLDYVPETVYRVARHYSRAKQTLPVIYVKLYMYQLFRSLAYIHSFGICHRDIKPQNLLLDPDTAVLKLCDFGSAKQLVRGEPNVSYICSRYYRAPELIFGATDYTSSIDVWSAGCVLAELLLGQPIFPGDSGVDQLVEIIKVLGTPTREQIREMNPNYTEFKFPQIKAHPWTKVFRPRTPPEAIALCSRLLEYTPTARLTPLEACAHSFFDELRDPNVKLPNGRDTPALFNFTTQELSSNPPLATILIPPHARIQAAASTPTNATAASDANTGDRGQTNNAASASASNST
Chain of GSK3α (P49840 whole entry, species assumed): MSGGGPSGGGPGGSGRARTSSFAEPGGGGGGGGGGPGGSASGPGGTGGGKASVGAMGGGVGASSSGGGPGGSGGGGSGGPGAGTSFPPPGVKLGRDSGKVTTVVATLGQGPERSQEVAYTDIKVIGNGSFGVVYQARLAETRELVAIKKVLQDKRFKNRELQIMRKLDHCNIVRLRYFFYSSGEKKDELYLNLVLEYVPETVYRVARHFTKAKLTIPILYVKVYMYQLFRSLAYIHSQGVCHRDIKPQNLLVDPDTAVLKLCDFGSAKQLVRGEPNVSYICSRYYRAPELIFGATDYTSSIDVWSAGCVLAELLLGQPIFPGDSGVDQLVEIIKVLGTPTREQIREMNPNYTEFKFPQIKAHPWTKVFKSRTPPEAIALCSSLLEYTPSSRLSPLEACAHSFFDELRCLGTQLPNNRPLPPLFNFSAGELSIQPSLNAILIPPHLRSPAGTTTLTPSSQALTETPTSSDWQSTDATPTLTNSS

| Compound | IC50 (GSK3β; [1]) [nM] | IC50 (pTau) [nM] | IC50 (GSK3α) [nM] | IC50 (GSK3β) [nM] |
| --- | --- | --- | --- | --- |
| O=C(Nc1cnccc1-c1ccccc1)c1ccnc(Nc2ccc(OC(F)F)nc2)n1 [Example 38, 2-((6-(Difluoromethoxy)pyridin-3-yl)amino)-N-(4-phenylpyridin-3-yl)pyrimidine-4-carboxamide] | 3.1 | 130 | 1.1 |  |
| O=C(Nc1cnccc1-c1ccccc1)c1ccnc(NCC2CC2)n1 [Example 147, 2-((Cyclopropylmethyl)amino)-N-(4-phenylpyridin-3-yl)pyrimidine-4-carboxamide] | 0.14 | 20 | 0.14 |  |
| COc1ccc(Nc2nccc(C(=O)Nc3cnccc3-c3ccccc3)n2)cc1F [Example 19, 2-((3-Fluoro-4-methoxyphenyl)amino)-N-(4-phenylpyridin-3-yl)pyrimidine-4-carboxamide] | 0.18 | 17 | 0.17 |  |
| O=C(Nc1cncnc1)c1ccnc(Nc2cccc(-c3ccccc3)c2)n1 [Example 194, 2-([1,1′-Biphenyl]-3-ylamino)-N-(pyrimidin-5-yl)pyrimidine-4-carboxamide] | 4.4 | 390 | 2.9 |  |
| O=C(Nc1cnc(F)cc1N1CCC(F)(F)CC1)c1ccnc(Nc2ccc(OC(F)F)cc2)n1 [Example 181, 2-((4-(Difluoromethoxy)phenyl)amino)-N-(4-(4,4-difluoropiperidin-1-yl)-6-fluoropyridin-3-yl)pyrimidine-4-carboxamide] | 1.2 | 77 | 1.6 |  |
| O=C(Nc1cnccc1-c1ccccc1)c1ccnc(Nc2ccc(OC(F)F)cc2)n1 [Example 13, 2-((4-(Difluoromethoxy)phenyl)amino)-N-(4-phenylpyridin-3-yl)pyrimidine-4-carboxamide] | 0.45 | 60 | 0.3 |  |
| CC(C)(C)CNc1nccc(C(=O)Nc2cncnc2N2CCOCC2)n1 [Example 204] | 13 | 1100 | 11 |  |
| CC(=O)Nc1ccc(Nc2nccc(C(=O)Nc3cnccc3-c3ccccc3)n2)cn1 [Example 87, 2-((6-Acetamidopyridin-3-yl)amino)-N-(4-phenylpyridin-3-yl)pyrimidine-4-carboxamide] | 1.4 | 150 | 0.92 |  |
| O=C(Nc1cncnc1)c1ccnc(NCC2CC2c2cccc(F)c2)n1 (stereo not drawn) [Example 200, 2-(((2-(3-Fluorophenyl)cyclopropyl)methyl)amino)-N-(pyrimidin-5-yl)pyrimidine-4-carboxamide] | 53 | 6400 | 59 |  |
| CC(Nc1nccc(C(=O)Nc2cnccc2OCC(F)(F)F)n1)c1ccccc1 (stereo not drawn) [Example 138, 2-((1-Phenylethyl)amino)-N-(4-(2,2,2-trifluoroethoxy)pyridin-3-yl)pyrimidine-4-carboxamide] | 6.1 | 430 | 3.2 |  |
| O=C(Nc1cnccc1OCC(F)(F)F)c1ccnc(Nc2ccc(OC(F)(F)F)cc2)n1 [Example 59, N-(4-(2,2,2-Trifluoroethoxy)pyridin-3-yl)-2-((4-(trifluoromethoxy)phenyl)amino)pyrimidine-4-carboxamide] | 0.18 | 8.2 | 0.21 |  |
| O=C(Nc1cncnc1)c1ccnc(NCC2CC2c2ccc(F)cc2F)n1 (stereo not drawn) [Example 197, 2-(((2-(2,4-Difluorophenyl)cyclopropyl)methyl)amino)-N-(pyrimidin-5-yl)pyrimidine-4-carboxamide] | 24 | 5100 | 21 |  |
| O=C(Nc1cnccc1OCC(F)(F)F)c1ccnc(Nc2ccc(F)cc2)n1 [Example 55, 2-((4-Fluorophenyl)amino)-N-(4-(2,2,2-trifluoroethoxy)pyridin-3-yl)pyrimidine-4-carboxamide] | 0.26 | 7.6 | 0.16 |  |
| O=C(Nc1cnccc1OCC(F)(F)F)c1ccnc(NCc2cccc(F)c2)n1 [Example 140, 2-((3-Fluorobenzyl)amino)-N-(4-(2,2,2-trifluoroethoxy)pyridin-3-yl)pyrimidine-4-carboxamide] | 1.3 | 280 | 1.6 |  |
| Cn1cnc(Nc2nccc(C(=O)Nc3cnccc3-c3ccccc3)n2)c1 [Example 102, 2-((1-Methyl-1H-imidazol-4-yl)amino)-N-(4-phenylpyridin-3-yl)pyrimidine-4-carboxamide] | 260 | 10000 | 170 |  |
| Cc1cc(Nc2nccc(C(=O)Nc3cnccc3-c3ccccc3)n2)c(C)nc1OC(F)F [Example 41, 2-((6-(Difluoromethoxy)-2,5-dimethylpyridin-3-yl)amino)-I-(4-phenylpyridin-3-yl)pyrimidine-4-carboxamide] | 1.6 | 290 | 1.9 |  |

| Compound | IC50 (GSK3β; [1]) [nM] | IC50 (pTau) [nM] | IC50 (GSK3α) [nM] | IC50 (GSK3β) [nM] |
| --- | --- | --- | --- | --- |
| O=C(Nc1cnc(F)cc1N1CCC(F)(F)CC1)c1ccnc(NC2CCOCC2)n1 [Example 184, N-(4-(4,4-Difluoropiperidin-1-yl)-6-fluoropyridin-3-yl)-2-((tetrahydro-2H-pyran-4-yl)amino)pyrimidine-4-carboxamide] | 11 | 400 | 6 |  |
| CCCC1(c2cc(Cl)ncc2NC(=O)c2ccnc(NC3CCOCC3)n2)OCCO1 [Example 167, N-(6-Chloro-4-(2-propyl-1,3-dioxolan-2-yl)pyridin-3-yl)-2-((tetrahydro-2H-pyran-4-yl)amino)pyrimidine-4-carboxamide] | 0.43 | 69 | 0.47 |  |
| CCCC1(c2cc(Cl)ncc2NC(=O)c2ccnc(NC3CC3)n2)OCCO1 [Example 166, N-(6-Chloro-4-(2-propyl-1,3-dioxolan-2-yl)pyridin-3-yl)-2-(cyclopropylamino)pyrimidine-4-carboxamide] | 0.73 | 220 | 1.7 |  |
| O=C(Nc1cnccc1-c1ccc(F)cc1)c1ccnc(Nc2ccc(Cl)cc2)n1 [Example 46, 2-((4-Chlorophenyl)amino)-N-(4-(4-fluorophenyl)pyridin-3-yl)pyrimidine-4-carboxamide] | 0.5 | 77 | 0.44 |  |
| O=C(Nc1cnccc1OCC(F)(F)F)c1ccnc(NCc2ccccc2F)n1 [Example 129, 2-((2-Fluorobenzyl)amino)-N-(4-(2,2,2-trifluoroethoxy)pyridin-3-yl)pyrimidine-4-carboxamide] | 1.5 | 180 | 1.8 |  |
| O=C(Nc1cnccc1OCC(F)(F)F)c1ccnc(NC2CCCOC2)n1 (stereo not drawn) [Example 85, 2-((Tetrahydro-2H-pyran-3-yl)amino)-N-(4-(2,2,2-trifluoroethoxy)pyridin-3-yl)pyrimidine-4-carboxamide] | 0.51 | 17 | 0.41 |  |
| O=C(Nc1cnccc1OCC(F)(F)F)c1ccnc(NCc2cccc(C(F)(F)F)c2)n1 [Example 139, N-(4-(2,2,2-Trifluoroethoxy)pyridin-3-yl)-2-((3-(trifluoromethyl)benzyl)amino)pyrimidine-4-carboxamide] | 6.3 | 570 | 5.4 |  |
| O=C(Nc1cnccc1-c1ccc(F)cc1F)c1ccnc(Nc2ccccc2)n1 [Example 151, N-(4-(2,4-Difluorophenyl)pyridin-3-yl)-2-(phenylamino)pyrimidine-4-carboxamide] | 0.67 | 44 | 0.32 |  |
| O=C(Nc1cnccc1-c1ccc(F)cc1)c1ccnc(Nc2ccc(OC(F)F)cc2)n1 [Example 49, 2-((4-(Difluoromethoxy)phenyl)amino)-N-(4-(4-fluorophenyl)pyridin-3-yl)pyrimidine-4-carboxamide] | 0.48 | 74 | 0.29 |  |
| N#Cc1ccc(Nc2nccc(C(=O)Nc3cnccc3-c3ccccc3)n2)c(Cl)c1 [Example 24, 2-((2-Chloro-4-cyanophenyl)amino)-N-(4-phenylpyridin-3-yl)pyrimidine-4-carboxamide] | 3.8 | 170 | 1.6 |  |
| O=C(Nc1cnccc1-c1ccccc1)c1ccnc(Nc2cc(Cl)c(Cl)cc2F)n1 [Example 31, 2-((4,5-Dichloro-2-fluorophenyl)amino)-N-(4-phenylpyridin-3-yl)pyrimidine-4-carboxamide] | 0.89 | 320 | 0.52 |  |
| Cc1cc(Nc2nccc(C(=O)Nc3cnccc3-c3ccccc3)n2)ccn1 [Example 36, 2-((2-Methylpyridin-4-yl)amino)-N-(4-phenylpyridin-3-yl)pyrimidine-4-carboxamide] |  | 36 | 0.55 | 0.84 |
| O=C(Nc1cnc(F)cc1N1CCC(F)(F)CC1)c1ccnc(Nc2ccc(F)cc2)n1 [Example 180, N-(4-(4,4-Difluoropiperidin-1-yl)-6-fluoropyridin-3-yl)-2-((4-fluorophenyl)amino)pyrimidine-4-carboxamide] | 0.9 | 68 | 0.39 |  |
| COc1cccc(C2CC2CNc2nccc(C(=O)Nc3cncnc3)n2)c1 (stereo not drawn) [Example 199, 2-(((2-(3-Methoxyphenyl)cyclopropyl)methyl)amino)-N-(pyrimidin-5-yl)pyrimidine-4-carboxamide] | 40 | 6100 | 33 |  |
| Cc1ccc(Nc2nccc(C(=O)Nc3cnccc3-c3ccccc3)n2)cn1 [Example 89, 2-((6-Methylpyridin-3-yl)amino)-N-(4-phenylpyridin-3-yl)pyrimidine-4-carboxamide] | 3 | 73 | 1.5 |  |
| Cc1nc(OC(F)F)ccc1Nc1nccc(C(=O)Nc2cnccc2-c2ccccc2)n1 [Example 40, 2-((6-(Difluoromethoxy)-2-methylpyridin-3-yl)amino)-N-(4-phenylpyridin-3-yl)pyrimidine-4-carboxamide] | 22 | 5200 | 21 |  |
